pKd: −log10 of the molar value.

This test addresses T1, Histone-lysine N-methyltransferase SMYD3 (Homo sapiens, UniProt Q9H7B4).
T1 sequence (Q9H7B4 whole entry): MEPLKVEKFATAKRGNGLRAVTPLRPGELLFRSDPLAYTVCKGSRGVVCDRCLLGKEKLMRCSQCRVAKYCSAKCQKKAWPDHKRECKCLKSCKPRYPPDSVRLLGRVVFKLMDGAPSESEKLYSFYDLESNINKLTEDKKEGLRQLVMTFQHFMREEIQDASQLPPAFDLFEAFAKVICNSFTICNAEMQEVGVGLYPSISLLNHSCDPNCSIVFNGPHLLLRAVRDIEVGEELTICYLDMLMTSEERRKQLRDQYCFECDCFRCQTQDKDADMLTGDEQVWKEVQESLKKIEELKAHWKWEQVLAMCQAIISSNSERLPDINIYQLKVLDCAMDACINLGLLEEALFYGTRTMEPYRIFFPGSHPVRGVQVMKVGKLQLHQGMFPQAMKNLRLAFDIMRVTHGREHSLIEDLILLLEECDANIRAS
Nature of the test: Binding affinity to SMYD3 (unknown origin) assessed as dissociation constant by GCI biosensor based analysis.
On to `O=CNc1ccccc1` [FORMANILIDE], for which the pKd (commonly −log10 of the Kd, conventionally taken in molar units) is approximately 4.10.

Consider `Cc1ccsc1C(Cc1ccccc1)NC(=O)Cn1cncn1` (stereo unspecified), for which the pKd was approximately 3.89.

Consider `Cc1cc(NC(=O)CCCNC(=O)c2ccsc2)no1`, for which the pKd was approximately 3.68.

With `Cc1cccc(C)c1NC(=O)CN1CCCC1c1ccccc1` (stereo unspecified), the negative logarithm of the Kd (pKd) is approximately 6.40.

Turning to `CCC(C(=O)NC1CCCC1)N(C)Cc1ncc(C)[nH]1` (stereo unspecified), the pKd was approximately 3.74.

With `Cc1cc(N2CCC(NC(C)c3sccc3C)C2=O)n(C)n1` (stereo unspecified), the pKd was approximately 5.52.

The values are drawn from ChEMBL document CHEMBL6109091, “Integrated computational and biosensor-based strategies for the discovery of allosteric SMYD3 ligands using diperodon as a starting point” (Bioorg Med Chem, 2025).
